The values below come from a melting point compilation (Tetko et al.; mined from patent text by program, amines drawn as free bases though some values may be those of a salt).

A value given as a limit tells only on which side of the number the result lay.

For the molecule `CC(C)N1Cc2cccc(F)c2N(CCN2CC=C(c3c[nH]c4cc(F)ccc34)CC2)S1(=O)=O`, the melting point lay in the range of 199 to 201 °C.

In turn, `O=C(OCC1OC(n2cc(F)c(=O)[nH]c2=O)C(OC(=O)c2ccccc2)C1OC(=O)c1ccccc1)c1ccccc1` (stereo not given) had a melting point of 208 to 209 °C.

In turn, `O=C(Nc1ccc(CN2CCCCC2)cc1)C(Br)C(Br)c1ccc(-c2ccc(Cl)cc2)cc1` (stereo not given) returned a melting point of 145 to 150 °C.

Turning to `COc1ccc(-n2nc(C(O)c3ccccc3)cc2-c2ccc(C)cc2)cc1` (stereo not given), the melting point fell in the range of 101 to 103 °C.

`C[C@]1(c2ccccc2)C[C@@]1(NS(=O)(=O)c1ccc(-c2cc(C(F)(F)F)on2)s1)C(=O)O` had a melting point of 130 to 132 °C.

Take `FCCOc1ccc(COCc2ccc(Cl)cc2)cc1`: the melting point is 43 to 43.7 °C.

`O=C1CCCC2=C1C(c1ccc(F)c(Br)c1)C1=C(CCCC1)N2` (stereo not given) registered a melting point of 254 to 257 °C.

In turn, `CC(C)(C)c1nnc2ccc(Cl)nn12` gave a melting point of 150 to 152 °C.

`Cn1cc(C2CCN(CCCCNC(=O)c3ccc(-c4ccc(C(F)(F)F)cc4)cc3)CC2)c2ccccc21`: the melting point lay in the range of 205 to 206 °C.

As for `CC1(C)Oc2ccc(C3=NNC(=O)CC3)cc2NC1=O`, the melting point fell in the range of 251 to 254 °C.

Take `CCCc1c(C(=O)O)cnc(C(F)(F)F)c1C(=O)O`: the melting point came to 236 °C.

As to `CCOC(=O)c1nc(-c2ccc(=O)[nH]c2)c(-c2ccccc2)nc1N`, the melting point lay in the range of 230 to 238 °C.

In turn, `CC(=O)c1c(N2CCOCC2)nn2ccccc12` showed a melting point of 164 °C.

Take `ClC1=NC2CCCc3c(Cl)ccc(c32)N1` (stereo not given): the melting point lay in the range of 190 to 192 °C.

Consider `C(#Cc1ccsc1)C1=CCN(Cc2c[nH]c3ncccc23)CC1`, for which the melting point is 203 to 205 °C.

Regarding `COc1ccc(C2(O)CCC3CN(Cc4ccccc4)CCC3C2)cc1` (stereo not given), the melting point fell in the range of 38 to 40 °C.

`O=C1C=C(c2ccc(C(F)(F)F)cc2C(F)(F)F)CO1` returned a melting point of 116 to 117 °C.

`CCN(CC)Cc1nc2cc(OC)c(OC)cc2c(-c2ccc(OC)c(OC)c2)c1C(C)O` (stereo not given): the melting point was 144 to 145 °C.

With `C=CCn1c(NCC(F)(F)F)nc(N2CCc3ccccc3CC2)c(C#N)c1=O`, the melting point was 186 to 191 °C.

For `CC(C)(C)c1cccc(S(=O)(=O)n2c(Cc3ccc(-c4n[nH]c(=O)o4)cc3)cc3cc(C(F)(F)F)ccc32)c1`, the melting point is 92 °C.

`O=C1c2ccccc2-c2c1c1ccccc1c(=O)n2CCCCCCCCCCNS(=O)(=O)c1ccccc1` registered a melting point of 128 to 130 °C.

In turn, `O=C(c1ccccc1)c1c[nH]nc1-c1cccc(Cl)c1` had a melting point of 161 to 164 °C.

Take `CCCCCCCCCCCCCCCCSc1cc(O)c(Sc2nnnn2-c2ccccc2)cc1O`: the melting point is 129 to 131 °C.

On to `Fc1ccc2[nH]cc(CCCCN3CCN(c4cccc(Cl)c4Cl)CC3)c2c1`, for which the melting point lay in the range of 147 to 148 °C.

The molecule `COc1ccc(Oc2ccc(OCc3ccccc3)cc2[N+](=O)[O-])cc1` showed a melting point of 120 °C.

As to `CC(=O)NC[C@H]1NC(=O)[C@H]1NC(=O)Cc1ccccc1` (relative stereo), the melting point lay in the range of 200 to 202 °C.

On to `C[C@H]1CN(c2ccc(C(F)(F)F)c(Cl)n2)CCN1C(=O)OC(C)(C)C`, for which the melting point was 86 °C.

In the case of `COc1cc(C(=O)N(C(C)C)C2CCCCC2)ccc1Cn1c(CO)nc2cccnc21`, the melting point was 124 to 126 °C.

`Cc1ccc(N2C(=O)C(O)=C(C(=O)c3ccc(C(C)C)cc3)C2c2ccc(Cn3nccn3)cc2)nn1` (stereo not given) registered a melting point of 285 °C.

In turn, `CC(C)(O)c1cnn2c(-c3ccc(F)c(-c4ccccc4C#N)c3)cnc2n1` displayed a melting point of 187 °C.

As to `NC(=O)c1nnn(Cc2ccc(C(=O)c3ccc(Cl)cc3)cc2)c1N`, the melting point lay in the range of 229 to 231 °C.

As to `Cc1cc2c(cc1Cl)C(Br)(c1ccccc1Cl)C(=O)N2` (stereo not given), the melting point lay in the range of 109 to 111 °C.

In turn, `CCCCn1c(=O)c(NC(=O)Nc2c(C(C)C)cccc2C(C)C)c(-c2cccc(OC)c2)c2cccnc21` had a melting point of 178 to 181 °C.

`CCOC(=O)C(C)=Cc1ccc2cc[nH]c2c1`: the melting point lay within 88 to 91 °C.

For the molecule `c1ccc(-c2cn3cnnc3cn2)cc1`, the melting point lay within 231 to 233 °C.

`COc1ccc(/C=C/c2nc3ncccc3c(=O)o2)cc1OC` yielded a melting point of 228 to 231 °C.

As to `CC(O)c1cccc(NC(=O)NCC(=O)N(c2ccccc2)C(C)C(=O)N2CCCC(C)(C)C2)c1` (mixture of isomers), the melting point came to 186 °C.

In turn, `COc1ccc(NN=C(Sc2cc(C)cc(C)c2)C(C)=O)cc1` returned a melting point of 165 to 167 °C.

In the case of `O=C1c2ccccc2C(=O)c2c1c(Cl)c1ccc(Sc3ccccc3)cc1c2Cl`, the melting point is 160 to 163 °C.

As to `Sc1nc2cccccc-2n1`, the melting point was 300 °C.

Consider `O=C(O)c1cc(=O)c(-c2ccc(OCc3ccccc3)c(OCc3ccccc3)c2)co1`, for which the melting point fell in the range of 206 to 208 °C.

`CCC1=Cc2cc3c(cc2C(c2ccc([N+](=O)[O-])cc2)=NN1C(C)=O)OCO3` displayed a melting point of 132 to 134 °C.

With `COc1ccc(-c2nc3cccc(C(=O)NC4CC5CCCC(C4)N5C)c3o2)cc1` (stereo not given), the melting point fell in the range of 160 to 162 °C.

For the molecule `COC(=O)C1COC(c2ncn3c2CN(C)C(=O)c2c(Cl)cccc2-3)=N1` (stereo not given), the melting point lay within 216 to 218 °C.

For the molecule `NC(=O)c1cn(C2CCCC2)nc1N`, the melting point was in the range of 179 to 181 °C.

As to `O=C(Cc1ccc(F)cc1)c1cccs1`, the melting point lay in the range of 61 to 62.5 °C.

The molecule `CCSc1cn(C)cc(-c2cccc(C(F)(F)F)c2)c1=O` displayed a melting point of 84 to 85 °C.

The molecule `O=[N+]([O-])c1cccc(C(c2cccc([N+](=O)[O-])c2)(C(F)(F)F)C(F)(F)F)c1` displayed a melting point of 118 to 119 °C.

Regarding `Cc1ccccc1-c1c(C(=O)O)c(=O)n(C)c2cc3c(cc12)CCC3`, the melting point lay in the range of 231 to 232 °C.

`CC(C)c1cn2ccccc2c1S(=O)(=O)c1ccc(OCCCBr)cc1` returned a melting point of 133 °C.

Take `O=CCCNc1[nH]c(-c2ccc(F)cc2)nc1-c1ccccc1`: the melting point lay in the range of 201 to 202 °C.

For `CCCCOc1nc(N)c2nc(OC)n(CCCBr)c2n1`, the melting point was in the range of 200 to 201 °C.

In turn, `N#CC(C#N)=C1N(CCCN2CCCCC2)CCN1CCN1CCCC1` showed a melting point of 63 to 64 °C.

On to `CC(CC1CCCCC1)N(C)C(=O)COCC(=O)O` (stereo not given), for which the melting point lay within 90 to 91 °C.

The molecule `Cc1nn(-c2cc(Oc3ccc(OC(C)C(=O)O)cn3)c(Cl)cc2F)c(=O)n1C(F)F` (stereo not given) showed a melting point of 49 to 51 °C.

In the case of `CN(C(CCn1c(=O)cc(C(F)(F)F)[nH]c1=O)C(=O)NO)S(=O)(=O)c1ccc(Oc2cccc(Cl)c2)cc1` (stereo not given), the melting point lay in the range of 168 to 169 °C.

As for `Cc1cc(C(=O)NCO)ncc1C(c1c(F)ccc(F)c1F)S(=O)(=O)CCC(F)(F)C(F)(F)F` (stereo not given), the melting point is 126 to 128 °C.

`CCOC(=O)NN(C)c1cc(C)c(-c2cccc([N+](=O)[O-])c2)nn1`: the melting point is 142 to 144 °C.

`COCOc1ccc(C(=O)CI)c(OCc2ccccc2)c1` displayed a melting point of 66 to 68 °C.

As to `COc1ccc(C2=NN(c3ccc(O)cc3)C(=O)[C@@H]3CC=CC[C@H]23)cc1OC`, the melting point was 111 to 112 °C.

With `CC(C)=CCc1c(O)cc(O)cc1-c1cc2ccc(O)cc2o1`, the melting point lay within 82 to 83 °C.

In turn, `COc1ccc(Cc2cc(C3CCN(C(=O)NCc4ccccc4)CC3)nc(N)n2)cc1` displayed a melting point of 128 to 131 °C.

Take `Cc1noc(-c2ccccc2)c1-c1ccc(S(C)(=O)=O)cc1`: the melting point lay in the range of 144 to 145 °C.

For `CCN1N=C(c2ccc(OC)c(OC)c2)[C@@H]2CCCC[C@@H]2C1=O` (relative stereo), the melting point was in the range of 105 to 106 °C.

For the molecule `CCN(C)c1cccc(NC(=O)COC(C)=O)c1C#N`, the melting point lay within 57 to 58 °C.

For `COc1cc2cc(C(C#N)(C(C)CC#N)N3CCOCC3)sc2cc1OC` (stereo not given), the melting point lay in the range of 162 to 165 °C.

`Cc1ccccc1CN(CC(=O)OC(C)(C)C)S(=O)(=O)c1ccc2c(Cl)cnc(Cl)c2c1` showed a melting point of 96 to 98 °C.

Regarding `CN(C)Cc1ccc(CSCCN=CNS(=O)(=O)c2ccc(Cl)cc2)o1`, the melting point lay in the range of 93 to 96 °C.

In the case of `COc1ccc(Cn2c(=O)ccc3cnc(Nc4ccccc4)nc32)cc1`, the melting point fell in the range of 215 to 216 °C.

Molecule `Cc1ccc(S(=O)(=O)OC[C@H]2COc3cc(F)c4c(c3O2)CC(=O)N4)cc1` showed a melting point of 205 to 206 °C.

For the molecule `COc1ccc(S(=O)(=O)N(Cc2nnnn2C)c2ccc(Cl)cc2Cc2c(F)cccc2F)cc1OC`, the melting point was 136 °C.

Regarding `CCCn1c(=O)c2c(nc(/C=C/c3ccc(OC)cc3)n2C)n(CCC)c1=O`, the melting point was 160 to 161 °C.

`N#Cc1cc(-c2ccc(Cl)cc2Cl)c[nH]c1=O` showed a melting point above 260 °C.

With `CCCCOCn1c(-c2ccc(Cl)cc2)c(C#N)c(Br)c1C(F)(F)F`, the melting point lay within 52 to 53.5 °C.

`CCC(=NO)c1ccc(OCCCCCCCc2cc(C)no2)cc1` showed a melting point of 88 to 89 °C.

On to `Cc1noc(NS(=O)(=O)c2ccccc2)c1Cl`, for which the melting point was in the range of 140 to 143 °C.

Regarding `N#Cc1c(Cl)c2ccccc2n(Cc2ccc(F)cc2)c1=O`, the melting point came to 231 °C.

As for `NC(=O)c1ccc2nc3sc(-c4ccccc4)cc3c(=O)n2c1`, the melting point fell in the range of 348 to 352 °C.

In turn, `CN1CCN(CCC#Cc2csc3ncc(C#N)c(Nc4ccc5[nH]ccc5c4)c23)CC1` gave a melting point of 184 to 186 °C.

Consider `CCOC(=O)c1c(-c2ccc(Cl)c(Cl)c2)csc1N1C(=O)c2ccccc2C1=O`, for which the melting point was 155 to 156 °C.

The molecule `COc1ccc(C=CC(=O)O)cc1-c1cc2c(cc1OCCCCCCO)C(C)(C)CCC2(C)C` had a melting point of 118 to 120 °C.

With `Cc1cc(C)n(-c2nccc(Nc3cccc(C(F)(F)F)c3)n2)n1`, the melting point was in the range of 98.5 to 99.6 °C.

In the case of `CC(Cl)(Cl)C(NC(=O)c1ccc(Cl)cc1)NC(=NC#N)Nc1ccccc1F` (stereo not given), the melting point was 216 to 217 °C.

Turning to `COc1ccc(OC)c2c1C[C@@H](O)[C@H](N1CCN(c3ccccc3C)CC1)C2` (relative stereo), the melting point was in the range of 217 to 219 °C.

The molecule `c1ccc(CNCc2n[nH]c(-c3ccc(CN4CCCCCC4)s3)n2)cc1` gave a melting point of 155 to 157 °C.

A word on the melting point: it is the temperature, or range, at which the solid turns liquid.
